# According to PubChem BioAssay AID2252 (Southern Research Specialized Biocontainment Screening …, 2010):
# Several values for one entry are separate records, joined by “and”; a condition that tells them apart may be missing. Equal values may be shown once.
# Tested on: THP-1 viability, CellTiter-Glo luminescence, 72 h
# Assay: PubChem AID 2252
row,Compound,EC50
1,Cc1ccc2c(c1)C1CN(C)CCC1N2Sc1ccccc1[N+](=O)[O-] (stereo unspecified),21.1 µM
2,O=C(N/N=C/c1sc2ccccc2c1O)c1cccc2ccccc12,2.58 µM
3,Cc1ccc2c(c1)c1c(n2CC(O)CNC2CCCCC2)CCCC1 (stereo unspecified),7.7 µM
4,COc1ccc(Nc2c3c(nc4ccccc24)CCC3)cc1,3.42 µM
5,Oc1c(Br)cc(Br)cc1C=Nc1cccc2ncccc12,12.9 µM
6,Oc1c(Br)cc(Br)cc1Oc1ccc(Br)cc1Br,26.9 µM
7,CN1/C(=C\C=C\C2=[N+](C)c3ccc4ccccc4c3C2(C)C)C(C)(C)c2ccccc21,0.2 µM
8,Oc1ccc(C[C@@H]2CNCCN2CCC23CC4CC(CC(C4)C2)C3)cc1,9.86 µM
9,CC1CCC(C(C)C)C(OC(=O)Cn2c(-c3ccc(Br)cc3)[n+](C)c3ccccc32)C1 (stereo unspecified),2.16 µM
10,CN(Cc1ccccc1)CC(O)COc1ccc(CNCc2ccc(Cl)s2)cc1 (stereo unspecified),22.2 µM
11,O=C(Nc1nnc(C2COc3ccccc3O2)o1)c1ccc(F)cc1 (stereo unspecified),16.8 µM
12,CC(NCc1ccc(Cl)c(Cl)c1)C(O)c1ccccc1 (stereo unspecified),30.6 µM
13,C[C@H]1O[C@@H](n2cc(F)c(=O)[nH]c2=O)[C@H](O)[C@@H]1O,26.7 µM
14,CC1CCCC(NC(=O)COC(=O)Cc2c[nH]c3ccccc23)C1C (stereo unspecified),< 0.1 µM
15,NC1=NC[C@H](c2ccccc2)N1CCc1cc(C(F)(F)F)cc(C(F)(F)F)c1,3.81 µM
16,O=C(NNC(=S)NC(=O)c1ccco1)c1ccc(F)cc1,9.47 µM
17,COc1ccc(CNCCc2c[nH]c3ccccc23)c(OC)c1C,8.57 µM
18,Cc1ccc(-c2csc(NC(=O)C[n+]3cc(-c4ccccc4)n4c3CCC4)n2)cc1,8.47 µM
19,CO[C@H]1C=CO[C@@]2(C)Oc3c(C)c(O)c4c(O)c(c5c(c4c3C2=O)NC2(CCN(CC(C)C)CC2)N=5)=NC(=O)C(C)=CC=C[C@H](C)[C@H](O)[C@@H](C)[C@@H](O)[C@@H](C)[C@H](OC(C)=O)[C@@H]1C,26 µM

row,Compound,EC50
1,CC[C@H]1OC(=O)C[C@@H](O)[C@H](C)[C@@H](O[C@@H]2O[C@H](C)C[C@H](N(C)C)[C@H]2O)[C@@H](CC=O)C[C@@H](C)C(=O)C=C[C@]2(C)O[C@H]2[C@@H]1C,12.2 µM
2,C#CCOCCOCCOCCNc1nc(N2CCN(C(=O)CCCCCCCCCCNC(=O)[C@H](CCCCN)n3cc(CCO)nn3)CC2)nc(N2CCN(C(=O)CCCCCCCCCCNC(=O)[C@H](CCCCN)n3cc(C[C@@H](C)CC)nn3)CC2)n1,12.9 µM
3,O=C(Nc1nnc(-c2cccs2)o1)c1cccc(C(F)(F)F)c1,14.3 µM
4,CC1CC(=O)c2c(cc3c(-c4c(O)cc(O)c5c(O)c6c(cc45)OC(C)CC6=O)c(O)cc(O)c3c2O)O1 (stereo unspecified),< 0.1 µM
5,CNCCC=C1c2ccccc2CCc2ccccc21,22.5 µM
6,O=C(N/N=C/c1c(O)ccc2ccccc12)c1ccc(CO)nc1,1.41 µM
7,CCN(CC)CCn1c(NCc2cc(OC)ccc2OC)nc2ccccc21,42.7 µM
8,CCc1cccc(NC(=O)CSC2=NS(=O)(=O)c3ccccc32)c1,15.6 µM
9,COc1ccc(CNCCC(c2ccccc2)c2ccc3c(c2)OCO3)cc1 (stereo unspecified),13.4 µM
10,CC(=O)CC1OC(=O)C(Br)=C1NCc1ccccc1 (stereo unspecified),9.9 µM
11,COc1ccc(C(=O)NNC(=S)NC(=O)c2ccccc2)cc1,6.81 µM
12,CCCOc1ccc(C(=O)NNC(=S)NC(C)=O)cc1,5.29 µM
13,O=[N+]([O-])c1cccnc1S(=O)(=O)c1ccccc1,1.77 µM
14,O=C(NC(=C(Cl)Cl)S(=O)(=O)c1ccc(Cl)cc1)c1ccccc1,23.2 µM
15,Cc1nn(-c2nc3ccccc3[nH]2)c(N)c1-c1ccccc1,28.7 µM
16,COc1ccccc1C(=O)NNC1=C(C(=O)C(F)(F)F)CCC1,15.1 µM
17,CCCCCCCCNC(C)C(O)c1ccc(SC(C)C)cc1 (stereo unspecified),3.57 µM
18,Cc1ccc2nc(NCc3ccccc3)[nH]c2c1,3.85 µM
19,CC1CCN(CCOCCOc2ccc(Br)cc2Cl)CC1,32.9 µM

row,Compound,EC50
1,NCC/C=C1/c2ccccc2CSc2ccccc21,25.9 µM
2,Oc1c(CN2CCCCC2)cc(Br)c2cccnc12,2.65 µM
3,CC(Oc1ccc(Br)cc1)c1nc2c3ccccc3nc(=S)n2[nH]1 (stereo unspecified),17.9 µM
4,O=C(N/N=C/c1cccc(OCc2ccccc2)c1)c1cccs1,40.4 µM
5,COc1ccc(Nc2nc(NCC3CCCO3)c3ccccc3n2)c(OC)c1 (stereo unspecified),9.34 µM
6,CC(C)(C)Nc1nc(-c2ccccn2)nc2ccccc12,3.45 µM
7,CCOC(=O)c1c(-c2ccccc2)oc2ccc(OCC(O)CNCCN(C)C)cc12 (stereo unspecified),5.89 µM
8,Cc1ccc(S(=O)(=O)CCC(=O)c2ccc(O)cc2O)cc1,16 µM
9,COc1ccc(C[C@H]2CN3C(=NC[C@H]3Cc3ccccc3)N2CCNC(=O)c2ccc(C)c(Br)c2)cc1,7.83 µM
10,CN(C)CCCN1c2ccccc2Sc2ccc(Cl)cc21,5.64 µM and 12.4 µM
11,O=C1C2=C(Nc3ccccc3SC2c2ccco2)c2ccccc21 (stereo unspecified),23.6 µM
12,CS(=O)(=O)c1ccc2nc(NC(=O)c3ccc(Cl)nc3)sc2c1,46.2 µM
13,CC(=O)Nc1ccc(NC(=O)CSc2ccc(-c3ccco3)nn2)cc1,< 0.1 µM
14,COc1ccc(OCc2n(CC(=O)OC3CC(C)CCC3C(C)C)c3ccccc3[n+]2C)cc1 (stereo unspecified),1.63 µM
15,O=[N+]([O-])c1cc(F)c2cccnc2c1O,22.9 µM
16,CCN1/C(=C/C=C/C=C/c2sc3ccccc3[n+]2CC)Sc2ccccc21,7.7 µM
17,COc1ccc(C(C(=O)Nc2ccc(C(C)C)cc2)N(Cc2ccco2)C(=O)CC2NC(=O)NC2=O)cc1 (stereo unspecified),31.9 µM
18,Clc1ccc(CONc2ncnc3nonc23)c(Cl)c1,47.7 µM
